pIC50: −log10 of the molar value. Where “and” joins values, the source holds several entries; their conditions need not be identical. Identical values can stand only once. One block for each compound: values may come before it.
System: 233499-124-R-J3-PDC complex spheroid viability, % test/control
Test: Anticancer human tumor 233499-124-R-J3-PDC patient-derived colon adenocarcinoma cell line growth inhibition
Conditions: for viability, T/C: stronger effect = lower value
Method in brief: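 Complex spheroids of tumor cells with HUVEC and human MSCs, exposed to iadademstat combined with other agents. Each agent tested in half-log steps from near clinical Cmax (else 10 microM top), DMSO ≤0.25%.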

[1] = curve of first compound, second compound 0.1 µM
[2] = curve of first compound, second compound 0.316 µM
[3] = curve of first compound, second compound 1 µM
[4] = curve of first compound, second compound 3.16 µM
[5] = curve of first compound, second compound 10 µM
[6] = second compound 0.1 µM, first compound 0.00949 µM
[7] = second compound 0.1 µM, first compound 0.03 µM
[8] = second compound 0.1 µM, first compound 0.0949 µM
[9] = second compound 0.1 µM, first compound 0.3 µM
[10] = second compound 0.1 µM, first compound 0.949 µM
[11] = second compound 0.1 µM, first compound 3 µM
[12] = second compound 0.316 µM, first compound 0.00949 µM
[13] = second compound 0.316 µM, first compound 0.03 µM
[14] = second compound 0.316 µM, first compound 0.0949 µM
[15] = second compound 0.316 µM, first compound 0.3 µM
[16] = second compound 0.316 µM, first compound 0.949 µM
[17] = second compound 0.316 µM, first compound 3 µM
[18] = second compound 1 µM, first compound 0.00949 µM
[19] = second compound 1 µM, first compound 0.03 µM
[20] = second compound 1 µM, first compound 0.0949 µM
[21] = second compound 1 µM, first compound 0.3 µM
[22] = second compound 1 µM, first compound 0.949 µM
[23] = second compound 1 µM, first compound 3 µM
[24] = second compound 3.16 µM, first compound 0.00949 µM
[25] = second compound 3.16 µM, first compound 0.03 µM
[26] = second compound 3.16 µM, first compound 0.0949 µM
[27] = second compound 3.16 µM, first compound 0.3 µM
[28] = second compound 3.16 µM, first compound 0.949 µM
[29] = second compound 3.16 µM, first compound 3 µM
[30] = second compound 10 µM, first compound 0.00949 µM
[31] = second compound 10 µM, first compound 0.03 µM
[32] = second compound 10 µM, first compound 0.0949 µM
[33] = second compound 10 µM, first compound 0.3 µM
[34] = second compound 10 µM, first compound 0.949 µM
[35] = second compound 10 µM, first compound 3 µM
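Further: spheroids exposed to agents for one week before readout.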

SMILES: O=C(C=Cc1cccc(S(=O)(=O)Nc2ccccc2)c1)NO + NC1CCC(NC2CC2c2ccccc2)CC1
pIC50 [1]: < 5.52
pIC50 [2]: < 5.52
pIC50 [3]: 5.52
pIC50 [4]: < 5.52
pIC50 [5]: 5.52
viability, T/C [6]: 105%
viability, T/C [7]: 115%
viability, T/C [8]: 122%
viability, T/C [9]: 134%
viability, T/C [10]: 51.9%
viability, T/C [11]: 110%
viability, T/C [12]: 101%
viability, T/C [13]: 108%
viability, T/C [14]: 128%
viability, T/C [15]: 120%
viability, T/C [16]: 47.7%
viability, T/C [17]: 106%
viability, T/C [18]: 81.3%
viability, T/C [19]: 105%
viability, T/C [20]: 108%
viability, T/C [21]: 109%
viability, T/C [22]: 44.7%
viability, T/C [23]: 78.8%
viability, T/C [24]: 101%
viability, T/C [25]: 101%
viability, T/C [26]: 102%
viability, T/C [27]: 116%
viability, T/C [28]: 38.5%
viability, T/C [29]: 89.3%
viability, T/C [30]: 79.2%
viability, T/C [31]: 85.5%
viability, T/C [32]: 78.8%
viability, T/C [33]: 117%
viability, T/C [34]: 32.9%
viability, T/C [35]: 76.3%

SMILES: COc1cc(C2c3cc4c(cc3C(OC3OC5COC(C)OC5C(O)C3O)C3COC(=O)C23)OCO4)cc(OC)c1O (configuration not stated) + NC1CC1c1ccc(-c2cccc(O)c2)cc1
pIC50 [1]: 6.14
pIC50 [2]: 5.77
pIC50 [3]: 5.81
pIC50 [4]: 6.14
pIC50 [5]: 6.68
viability, T/C [6]: 104%
viability, T/C [7]: 101%
viability, T/C [8]: 86.5%
viability, T/C [9]: 57%
viability, T/C [10]: 51.9%
viability, T/C [11]: 41.5%
viability, T/C [12]: 109%
viability, T/C [13]: 113%
viability, T/C [14]: 94.8%
viability, T/C [15]: 73.4%
viability, T/C [16]: 51.5%
viability, T/C [17]: 47.8%
viability, T/C [18]: 94.3%
viability, T/C [19]: 82.1%
viability, T/C [20]: 73.3%
viability, T/C [21]: 60.6%
viability, T/C [22]: 53.7%
viability, T/C [23]: 45.5%
viability, T/C [24]: 91.1%
viability, T/C [25]: 86.2%
viability, T/C [26]: 73%
viability, T/C [27]: 62.1%
viability, T/C [28]: 42%
viability, T/C [29]: 46.6%
viability, T/C [30]: 71.4%
viability, T/C [31]: 72.4%
viability, T/C [32]: 63.1%
viability, T/C [33]: 44%
viability, T/C [34]: 46.5%
viability, T/C [35]: 40.6%

SMILES: Nc1ccccc1NC(=O)c1ccc(CNC(=O)OCc2cccnc2)cc1 + NC1CCC(NC2CC2c2ccccc2)CC1
pIC50 [1]: 6.32
pIC50 [2]: 6.24
pIC50 [3]: 6.28
pIC50 [4]: 6.28
pIC50 [5]: 6.33
viability, T/C [6]: 112%
viability, T/C [7]: 93.4%
viability, T/C [8]: 106%
viability, T/C [9]: 65.8%
viability, T/C [10]: 24%
viability, T/C [11]: 2.31%
viability, T/C [12]: 92.2%
viability, T/C [13]: 91.8%
viability, T/C [14]: 101%
viability, T/C [15]: 91.2%
viability, T/C [16]: 19.1%
viability, T/C [17]: 5.83%
viability, T/C [18]: 81.9%
viability, T/C [19]: 99.9%
viability, T/C [20]: 92%
viability, T/C [21]: 88.4%
viability, T/C [22]: 8.94%
viability, T/C [23]: 4.76%
viability, T/C [24]: 78.8%
viability, T/C [25]: 89.5%
viability, T/C [26]: 76.7%
viability, T/C [27]: 82.1%
viability, T/C [28]: 16.5%
viability, T/C [29]: 4.56%
viability, T/C [30]: 74.8%
viability, T/C [31]: 92.3%
viability, T/C [32]: 75.2%
viability, T/C [33]: 73.4%
viability, T/C [34]: 11.5%
viability, T/C [35]: 3.56%

SMILES: Nc1ccccc1NC(=O)c1ccc(CNC(=O)OCc2cccnc2)cc1 + NC1CC1c1ccc(-c2cccc(O)c2)cc1
pIC50 [1]: 6.34
pIC50 [2]: 6.43
pIC50 [3]: 6.61
pIC50 [4]: 6.41
pIC50 [5]: 6.47
viability, T/C [6]: 80.8%
viability, T/C [7]: 106%
viability, T/C [8]: 100%
viability, T/C [9]: 71.4%
viability, T/C [10]: 11.4%
viability, T/C [11]: 3.1%
viability, T/C [12]: 101%
viability, T/C [13]: 106%
viability, T/C [14]: 93.1%
viability, T/C [15]: 59.9%
viability, T/C [16]: 11.3%
viability, T/C [17]: 1.9%
viability, T/C [18]: 101%
viability, T/C [19]: 98.8%
viability, T/C [20]: 75%
viability, T/C [21]: 47.7%
viability, T/C [22]: 9.92%
viability, T/C [23]: 2.32%
viability, T/C [24]: 84.4%
viability, T/C [25]: 76.1%
viability, T/C [26]: 79.8%
viability, T/C [27]: 60.5%
viability, T/C [28]: 12.9%
viability, T/C [29]: 2.93%
viability, T/C [30]: 71.4%
viability, T/C [31]: 79.6%
viability, T/C [32]: 78.2%
viability, T/C [33]: 54.6%
viability, T/C [34]: 8.25%
viability, T/C [35]: 1.7%

Second part, led by results:

pIC50 (curve of compound): < 7.00
SMILES: Cn1ncnc1C1c2n[nH]c(=O)c3cc(F)cc(c23)NC1c1ccc(F)cc1 (configuration not stated)
viability, T/C (compound 0.000316 µM): 105% and 92.2%
viability, T/C (compound 0.001 µM): 95.1% and 80.9%
viability, T/C (compound 0.00316 µM): 91.4% and 98%
viability, T/C (compound 0.01 µM): 77.6% and 88.7%
viability, T/C (compound 0.0316 µM): 77.7% and 85.1%
viability, T/C (compound 0.1 µM): 93.4% and 82.7%

pIC50 (curve of compound): < 5.00 and 5.59
SMILES: CC1(C)CCC(CN2CCN(c3ccc(C(=O)NS(=O)(=O)c4ccc(NCC5CCOCC5)c([N+](=O)[O-])c4)c(Oc4cnc5[nH]ccc5c4)c3)CC2)=C(c2ccc(Cl)cc2)C1
viability, T/C (compound 0.0316 µM): 96.6% and 90.8%
viability, T/C (compound 0.1 µM): 93.2% and 96.6%
viability, T/C (compound 0.316 µM): 118% and 99.7%
viability, T/C (compound 1 µM): 112% and 93.5%
viability, T/C (compound 3.16 µM): 120% and 40.8%

pIC50 (curve of compound): 6.88 and 6.80
SMILES: Nc1ncn(C2CC(O)C(CO)S2)c(=O)n1 (configuration not stated)
viability, T/C (compound 0.000949 µM): 92.5% and 83.6%
viability, T/C (compound 0.003 µM): 96% and 87.5%
viability, T/C (compound 0.00949 µM): 119% and 95.5%
viability, T/C (compound 0.03 µM): 100% and 94%
viability, T/C (compound 0.0949 µM): 59.1% and 62.5%
viability, T/C (compound 0.3 µM): 28.4% and 35%

pIC50 (curve of compound): 7.55 and 7.66
SMILES: CCc1c2c(nc3ccc(O)cc13)-c1cc3c(c(=O)n1C2)COC(=O)[C@]3(O)CC
viability, T/C (compound 0.000949 µM): 91.8% and 92.6%
viability, T/C (compound 0.003 µM): 106% and 117%
viability, T/C (compound 0.00949 µM): 101% and 94%
viability, T/C (compound 0.03 µM): 47.5% and 33.5%
viability, T/C (compound 0.0949 µM): 16.6% and 32.4%
viability, T/C (compound 0.3 µM): 26.7% and 28.5%

Source: PubChem BioAssay AID1918930 (Molecular Pharmacology Branch, DTP, NCI, 2023)
